Consider one molecule from PMC12723449, “From Pharmacophore to Warhead: NAD^+‐Targeting Triazoles as Mechanism‐Based Sirtuin Inhibitors” (Angewandte Chemie (International Ed. in English), 2025).

One may read the EC50 as the midpoint of the concentration-response curve.

The target in assay [1] is T1, NanoLuc–SIRT2 fusion protein in HEK293T cells (Homo sapiens, UniProt Q8IXJ6).
T1 construct: HEK293T cells stably expressing the NanoLuc-SIRT250-364-fusion target protein were seeded into the coated plates; expressed in transfected cells; host or cells: HEK293T (stably expressing)
T1 sequence (Q8IXJ6 50-364 limits assumed): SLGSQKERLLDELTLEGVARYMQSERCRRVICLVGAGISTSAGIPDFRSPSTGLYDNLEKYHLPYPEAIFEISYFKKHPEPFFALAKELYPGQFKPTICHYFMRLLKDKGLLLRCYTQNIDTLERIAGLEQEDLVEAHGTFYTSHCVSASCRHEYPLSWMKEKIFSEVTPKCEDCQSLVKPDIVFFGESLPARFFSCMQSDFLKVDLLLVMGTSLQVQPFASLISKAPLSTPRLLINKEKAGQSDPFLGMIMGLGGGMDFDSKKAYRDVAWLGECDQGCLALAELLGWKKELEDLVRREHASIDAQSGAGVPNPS
Briefly: Kinetic NanoBRET washout assay (target residence time). The assay is classed as cell-based. To be noted: 25 µM (5 × EC50), 2 h preincubation, 2 h washout. (In general: In BRET a luciferase serves as donor, and the signal depends on an acceptor being close.)
Method: NanoBRET washout assay for determination of target residence time
A NanoBRET-based washout assay was used to assess the target residence time of inhibitors for SIRT2 in living cells. White, flat-bottom 96-well plates (PerkinElmer) were pre-coated with poly-L-lysine (Sigma-Aldrich) to enhance cell adherence. Briefly, each well was treated with poly-L-lysine solution for 5 min at room temperature, followed by removal of the coating solution and air-drying before seeding.
Cells were treated with the indicated inhibitor
After incubation, the inhibitor-containing medium was aspirated, and a washout procedure was performed to remove unbound inhibitor. Each well was washed twice by sequential addition and removal of 100 µL Opti-MEM (Thermo Fisher Scientific). Following the final wash, 90 µL Opti-MEM was added per well, followed by 100 µL of 2× Nano-Glo® substrate solution (Promega) and 10 µL of 20× SIRT2-Tracer solution.
BRET measurements were recorded kinetically using a Tecan Spark® plate reader equipped with donor (460 nm)
The BRET ratio was monitored over time to track the re-binding of the

Assay [2] deals with T2, NanoLuc–SIRT2 fusion protein in HEK293T cells (Homo sapiens, UniProt Q8IXJ6).
T2 construct: transfected HEK293T cells expressing the NanoLuc-tagged SIRT250-356 fusion protein were used instead of transient; expressed in transfected cells; host or cells: HEK293T (stably transfected)
T2 sequence (Q8IXJ6 50-356 limits assumed): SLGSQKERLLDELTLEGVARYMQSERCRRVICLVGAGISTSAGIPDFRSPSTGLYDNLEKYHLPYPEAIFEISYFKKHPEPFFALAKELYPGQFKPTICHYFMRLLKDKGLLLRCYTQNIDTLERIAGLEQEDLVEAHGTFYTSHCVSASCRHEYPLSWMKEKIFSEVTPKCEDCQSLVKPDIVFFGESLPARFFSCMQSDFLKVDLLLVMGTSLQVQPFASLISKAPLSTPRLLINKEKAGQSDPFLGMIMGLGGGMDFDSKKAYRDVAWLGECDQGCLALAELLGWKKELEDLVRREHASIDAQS
Also noted: method as in PMID 35441145. As to conditions: read-out: NanoBRET EC50; cited from earlier work.

“Also recorded” adds a separate entry of the source.

Regarding `O=C(NCc1cccnc1)c1ccc2c(c1)C1C3CCC(C3)C1C(c1ccccc1)N2` (centres unmarked) [AEM2, reference compound], the inhibition after washout entry in assay [1] is given as “completely lost activity; also recorded: fades with washout over 2 h”. In assay [2], the EC50 was 5.2 ± 0.2 µM.
